The supplement of paper PMC3974653
Structures can show the parent of a compound that is named as a salt.

Tested on: MTT (mouse pheochromocytoma)
Assay: IC50 of cell viability (ATP content)
Conditions: (24 or 48 h)
Summary of the method: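 The IC50 was fitted with a four-parameter logistic equation to normalised CellTiter-Glo ATP luminescence from MTT mouse pheochromocytoma cells. These cells, in white 1536-well plates, had been treated for 24 or 48 hrs with library compounds at 8 final concentrations between 0.5 nM and 46 µM, and luminescence was read after 15 minutes. Positive-control wells served as 100% and DMSO wells as 0%.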

SMILES: OC[C@H]1O[C@@H]2O[C@H]3[C@H](O)[C@@H](O)[C@@H](O[C@H]4[C@H](O)[C@@H](O)[C@@H](O[C@H]5[C@H](O)[C@@H](O)[C@@H](O[C@H]6[C@H](O)[C@@H](O)[C@@H](O[C@H]7[C@H](O)[C@@H](O)[C@@H](O[C@H]8[C@H](O)[C@@H](O)[C@@H](O[C@H]1[C@H](O)[C@H]2O)O[C@@H]8CO)O[C@@H]7CO)O[C@@H]6CO)O[C@@H]5CO)O[C@@H]4CO)O[C@@H]3CO [beta-Cyclodextrin]
- IC50 of cell viability: > 46 µM

SMILES: O=C(O)CC(O)C(=O)O.[NaH] (configuration not stated) [MALIC ACID]
- IC50 of cell viability: > 46 µM

SMILES: CC1OC(OCC2OC(OC/3=C(/OC4=C(C(=CC(=C4)OCCO)O)C3=O)C5=CC=C(OCCO)C(=C5)OCCO)C(O)C(O)C2O)[C@@H](O)C(O)C1O (some centres not stated) [TROXERUTIN]
- IC50 of cell viability: > 46 µM

SMILES: NCC[C@H](O)C(=O)N[C@@H]1C[C@H](N)[C@@H](O[C@H]2O[C@H](CN)CC[C@H]2N)[C@H](O)[C@H]1O[C@H]1O[C@H](CO)[C@@H](O)[C@H](N)[C@H]1O [ARBEKACIN SULFATE]
- IC50 of cell viability: > 46 µM

SMILES: CN1CCC(OC(=O)C(Oc2ccc(Cl)cc2)Oc2ccc(Cl)cc2)CC1 [Lifibrate]
- IC50 of cell viability: > 46 µM

SMILES: C[S+](=O)([O-])OCCCCO[S+](C)(=O)[O-] [Busulfan]
- IC50 of cell viability: > 46 µM

SMILES: CCCCN1CC(O)C(O)C(O)C1CO (configuration not stated) [MIGLUSTAT]
- IC50 of cell viability: > 46 µM

SMILES: C[N+](C)(C)CC(=O)O [Betaine hydrochloride]
- IC50 of cell viability: > 46 µM

SMILES: CN(C)[C@H]\1[C@@H]2[C@@H](O)[C@H]3\C(=C(O)/[C@]2(O)C(=O)\C(=C1O)C(N)=O)C(=O)C4=C(C=CC=C4O)[C@@]3(C)O [Oxytetracycline HCl]
- IC50 of cell viability: > 46 µM

SMILES: Nc1ncnc2c1ncn2[C@@H]1O[C@H](CO)[C@@H](O)[C@H]1O [ADENOSINE]
- IC50 of cell viability: > 46 µM

SMILES: Nc1ccn([C@@H]2CS[C@H](CO)O2)c(=O)n1 [Lamivudine]
- IC50 of cell viability: > 46 µM

SMILES: Oc1ccnc(S)n1 [2-THIOURACIL]
- IC50 of cell viability: > 46 µM

SMILES: CCCCCCCCCCCC(=O)OCC(O)C1OCC(O)C1O (configuration not stated) [SORBITANI LAURAS]
- IC50 of cell viability: > 46 µM

SMILES: O=C(CO)[C@@H](O)[C@H](O)[C@@H](O)CO [L-(-)-Sorbose]
- IC50 of cell viability: > 46 µM

SMILES: Cc1ccc(S(=O)(=O)NC(=O)NC2CCCC2)cc1 [TOLPENTAMIDUM]
- IC50 of cell viability: > 46 µM

SMILES: CNC(C)CC1CCCCC1 (configuration not stated) [Propylhexadrine]
- IC50 of cell viability: > 46 µM

SMILES: Cc1nc(N[S+](=O)([O-])c2ccc(N)cc2)nc(C)c1Br [SULFABROMOMETHAZINE SODIUM]
- IC50 of cell viability: > 46 µM

SMILES: O=C(CN1CCNCC1)NC1CCCCC1 [Esaprazola]
- IC50 of cell viability: > 46 µM

SMILES: C[C@](N)(Cc1ccc(O)cc1)C(=O)O [Metyrosine]
- IC50 of cell viability: > 46 µM

SMILES: CCCCC(=O)OC1CCC2C3CCc4cc(O)ccc4C3CC[C@]12C (some centres not stated) [ESTRADIOL VALERATE]
- IC50 of cell viability: > 46 µM

SMILES: N#C/C(=C1/SC[C@@H](c2ccc(Cl)cc2Cl)S1)n1ccnc1 [Luliconazole]
- IC50 of cell viability: > 46 µM

SMILES: CCCCCCCCCCCCCCCC(=O)OCC(NC(=O)C(Cl)Cl)C(O)c1ccc([N+](=O)[O-])cc1 (configuration not stated) [Chloramphenicol palmitate]
- IC50 of cell viability: > 46 µM

SMILES: CO/N=C(\C(=O)N[C@@H]1C(=O)N2C(C(=O)[O-])=C(C[n+]3cccc4c3CCC4)CS[C@H]12)c1csc(N)n1 [CEFPIROME SULPHATE]
- IC50 of cell viability: > 46 µM

SMILES: COC(=O)c1c(Cl)c(Cl)c(C(=O)OC)c(Cl)c1Cl [Chlorthal-dimethyl]
- IC50 of cell viability: > 46 µM

SMILES: COc1ccc2c(c1)OC(C)(C)C(c1ccccc1)C2c1ccc(OCCN2CCCC2)cc1 (configuration not stated) [ORMELOXIFENUM]
- IC50 of cell viability: > 46 µM

SMILES: CN(C)CCCOc1nn(Cc2ccccc2)c2ccccc12 [Benzydamine hydrochloride]
- IC50 of cell viability: > 46 µM

SMILES: CC(C)(C)C(=O)OCOC(=O)[C@@H]1[N@]2[C@@H](SC1(C)C)[C@H](NC(=O)[C@@H](N)C3=CC=CC=C3)C2=O [Pivampicillin]
- IC50 of cell viability: > 46 µM

SMILES: OC[C@@H](O)[C@H]1O[C@@H]2OC(C(Cl)(Cl)Cl)O[C@H]2[C@H]1O (some centres not stated) [CHLORALOSUM]
- IC50 of cell viability: > 46 µM

SMILES: CCCCOC(=O)c1ccccc1C(=O)OCc1ccccc1 [Butyl benzyl phthalate]
- IC50 of cell viability: > 46 µM

SMILES: C[N+]1(CCCCC[N+]2(C)CCCC2)CCCC1.O=C([O-])[C@@H](O)[C@@H](O)C(=O)O.O=C([O-])[C@@H](O)[C@@H](O)C(=O)O [Pentolinium bitartrate]
- IC50 of cell viability: > 46 µM

SMILES: [Na+].NC(=O)C1=CC=[N+](C\C2=C(\[N@]3[C@@H](SC2)[C@H](NC(=O)[C@H](C4=CC=CC=C4)[S]([O-])(=O)=O)C3=O)C([O-])=O)C=C1 [Cefsulodin sodium salt]
- IC50 of cell viability: > 46 µM

SMILES: NC(=O)c1cn(Cc2c(F)cccc2F)nn1 [RUFINAMIDE]
- IC50 of cell viability: > 46 µM

SMILES: Nc1ccc(/N=N/c2ccccc2)cc1 [4-Aminoazobenzene]
- IC50 of cell viability: > 46 µM

SMILES: FC(F)(F)COCC(F)(F)F [FLUROTYLUM]
- IC50 of cell viability: > 46 µM

SMILES: N=C(N/N=C/c1ccc(Cl)cc1)N/N=C/c1ccc(Cl)cc1 [ROBENIDINE HYDROCHLORIDE]
- IC50 of cell viability: > 46 µM

SMILES: C(=C\c1ccncc1)/c1ccccc1 [STYRYLPYRIDINIUM CHLORIDE]
- IC50 of cell viability: > 46 µM

SMILES: COC1=CC=C2[C@H]3Cc4ccc(OC)c5c4[C@@]2(CCN3C)[C@H]1O5 [THEBAINE]
- IC50 of cell viability: > 46 µM

SMILES: CCCCC(CC)COC(=O)c1ccccc1C(=O)O (configuration not stated) [Mono(2-ethylhexyl) phthalate]
- IC50 of cell viability: > 46 µM

SMILES: CCCCCCCCCCCCCCCC(=O)NCCO [Palmitoylethanolamide]
- IC50 of cell viability: > 46 µM

SMILES: C=CC[N+]1([C@H]2C[C@H]3[C@@H]4CC[C@H]5C[C@H](OC(C)=O)[C@@H](N6CCCCC6)C[C@]5(C)[C@H]4CC[C@]3(C)[C@H]2OC(=O)CC)CCCCC1 [RAPACURONIUM BROMIDE]
- IC50 of cell viability: > 46 µM

SMILES: CCCCOCCOCCOCc1cc2c(cc1CCC)OCO2 [Piperonyl butoxide]
- IC50 of cell viability: > 46 µM

SMILES: Cc1cccc(N(C)C(=S)Oc2ccc3c(c2)CCC3)c1 [TOLINDATE]
- IC50 of cell viability: > 46 µM

SMILES: [Na+].CO[C@H]1[C@@H](OC(N)=O)[C@@H](O)[C@H](OC2=C(C)C3=C(C=C2)\C(=C(\NC(=O)C4=CC(=C([O-])C=C4)CC=C(C)C)C(=O)O3)O)OC1(C)C [Novobiocin sodium salt]
- IC50 of cell viability: > 46 µM

SMILES: CC(C)=CCC[C@](C)(O)C1CC\C(=C/C1)C (some centres not stated) [BISABOLOL]
- IC50 of cell viability: > 46 µM

SMILES: CC(/C=C/C=C(\C)C(=O)O[C@@H]1O[C@H](CO[C@@H]2O[C@H](CO)[C@@H](O)[C@H](O)[C@H]2O)[C@@H](O)[C@H](O)[C@H]1O)=C\C=C\C=C(C)\C=C\C=C(/C)C(=O)O[C@@H]1O[C@H](CO[C@@H]2O[C@H](CO)[C@@H](O)[C@H](O)[C@H]2O)[C@@H](O)[C@H](O)[C@H]1O [SAFFRON]
- IC50 of cell viability: > 46 µM

SMILES: Cc1cccc(N(C)C(=S)Oc2ccc3ccccc3c2)c1 [Tolnaftate]
- IC50 of cell viability: > 46 µM

SMILES: NCC1O[C@@H](O[C@@H]2C(O)[C@H](O[C@H]3OC(CO)C(O)C(N)C3O)[C@@H](N)C[C@H]2N)C(N)C(O)C1O.O=[S+]([O-])(O)O (some centres not stated) [BEKANAMYCIN SULFATE]
- IC50 of cell viability: > 46 µM

SMILES: CC1=NN=C2C\N=C(C3=CC=CC=C3Cl)/C4=C(SC(=C4)Br)[N]12 [Brotizolam]
- IC50 of cell viability: > 46 µM

SMILES: C[C@@H]1O[C@@H](OC[C@H]2O[C@@H](Oc3c(-c4ccc(O)c(O)c4)oc4cc(O)cc(O)c4c3=O)[C@H](O)[C@@H](O)[C@@H]2O)[C@H](O)[C@H](O)[C@H]1O [Rutin]
- IC50 of cell viability: > 46 µM

SMILES: CN(C)CC[N]1N=NN=C1SC\C2=C(\[N@]3[C@@H](SC2)[C@H](NC(=O)CC4=CSC(=N4)N)C3=O)C(O)=O [Cefotiam hydrochloride]
- IC50 of cell viability: > 46 µM

SMILES: CC/C=C\C/C=C\C/C=C\C/C=C\C/C=C\C/C=C\CCC(=O)O [DOCOSAHEXAENOIC ACID]
- IC50 of cell viability: > 46 µM

SMILES: COC(=O)C1=C(C)NC(C)=C(C(=O)OCC(C)C)C1c1ccccc1[N+](=O)[O-] (configuration not stated) [Nisoldipine]
- IC50 of cell viability: > 46 µM

SMILES: C=C(C)C1CC=C(C)CC1 [D-LIMONENE]
- IC50 of cell viability: > 46 µM

SMILES: Cc1cc2c(cc1[S+](N)(=O)[O-])[S+](=O)([O-])CCC2 [Meticrane]
- IC50 of cell viability: > 46 µM

SMILES: NC(=O)NO [HYDROXYUREA]
- IC50 of cell viability: > 46 µM

SMILES: CCCCCCCCCCCCCCCCCCCCCC(=O)Nc1ccn([C@@H]2O[C@H](CO)[C@@H](O)[C@@H]2O)c(=O)n1 [ENOCITABINE]
- IC50 of cell viability: > 46 µM

SMILES: O=C(O)c1cc(-c2ccccc2)nc2ccccc12 [2-Phenyl-4-quinolinecarboxylic acid]
- IC50 of cell viability: > 46 µM
